Assays:
Assay in all cases: pNP release at […] nm, Lineweaver-Burk
Conditions in all cases: McIlvaine buffer, pH 6.0, 20 °C, 5 min, pNPX 0.1 to 2 mM
R7 = system: T1, R7; format: biochemical, Humicola insolens; Acremonium sp. WCQ6A
T1 construct: gene Xyl43A; Xyl43A with segment A4 (H232-D324) of AX543 at the C-terminus; pET-28a(+), E. coli BL21(DE3), purified

R5 = system: T2, R5; format: biochemical, Acremonium sp. WCQ6A; Humicola insolens
T2 construct: gene AX543; pET-28a(+), E. coli BL21(DE3), purified

R6 = system: T3, R6; format: biochemical, Humicola insolens; Acremonium sp. WCQ6A
T3 construct: gene AX543; pET-28a(+), E. coli BL21(DE3), purified

R3 = system: T4, R3; format: biochemical, Acremonium sp. WCQ6A; Humicola insolens
T4 construct: gene AX543; pET-28a(+), E. coli BL21(DE3), purified

R9 = system: T5, R9; format: biochemical, Humicola insolens; Acremonium sp. WCQ6A
T5 construct: gene Xyl43A; Xyl43A with segment A2 (T68-G160) of AX543; pET-28a(+), E. coli BL21(DE3), purified

R10 = system: T6, R10; format: biochemical, Humicola insolens; Acremonium sp. WCQ6A
T6 construct: gene AX543; Xyl43A with segment A1 (M1-K67) of AX543 at the N-terminus; pET-28a(+), E. coli BL21(DE3), purified

R2 = system: T7, R2; format: biochemical, Acremonium sp. WCQ6A; Humicola insolens
T7 construct: gene AX543; pET-28a(+), E. coli BL21(DE3), purified

R8 = system: T8, R8; format: biochemical, Humicola insolens; Acremonium sp. WCQ6A
T8 construct: gene Xyl43A; Xyl43A with segment A3 (D161-K231) of AX543; pET-28a(+), E. coli BL21(DE3), purified

R4 = system: T9, R4; format: biochemical, Acremonium sp. WCQ6A; Humicola insolens
T9 construct: gene AX543; pET-28a(+), E. coli BL21(DE3), purified

R1 = system: T10, R1; format: biochemical, Acremonium sp. WCQ6A; Humicola insolens
T10 construct: gene AX543; pET-28a(+), E. coli BL21(DE3), purified

Km (R7): 1630 ± 60 µM | Km (R5): 1210 ± 56 µM | Km (R6): 1190 ± 34 µM | Km (R3): 1000 ± 25 µM | Km (R9): 1320 ± 59 µM | Km (R10): 1870 ± 44 µM | Km (R2): 1170 ± 33 µM | Km (R8): 1300 ± 192 µM | Km (R4): 1840 ± 106 µM | Km (R1): 1250 ± 48 µM
Compound: O=[N+]([O-])c1ccc(O[C@@H]2OC[C@@H](O)[C@H](O)[C@H]2O)cc1 [4-nitrophenyl-β-D-xylopyranoside]

— publication PMC9407119, “Improving the Specific Activity and Thermostability of Psychrophilic Xylosidase AX543 by Comparative Mutagenesis” (Foods, 2022)
